What was measured:
Assay type in all cases: in vivo, male rats of Wistar line
[1] = tested on: experimental rat hypercholesterolemia model; assay: Lipid spectrum of blood in experimental rat hypercholesterolemia model
Experimental: The animals used were male rats of Wistar line. […] The proposed model using rats as the experimental animals is a reproducible standard model for evaluation of hypocholesterolemic effect.
(§1) Evaluation of hypocholesterolemic efficacy and safety of pharmaceutical combination was performed in vivo in experimental rat hypercholesterolemia model.
(§2) For 90 days the studied animals received hypercholesterol diet for pathology induction. The diet included Cholesterol+Cholic acid+Overheated fats (deep fat).
For 90 days the animals received the said ration ad libitum (30 g feed per animal). Development of hypercholesterolemia in animals was evaluated based on changes in lipid spectrum parameters on Day 30 of the study.
(§3) Drugs were introduced intragastrically with an esophageal bougie daily on Day 31-90 of the study at the same time of day.
Biochemical parameters and activity of blood serum enzymes (total cholesterol (CHS), LDL-CHS, HDL-CHS, triglycerides.
1.0-1.84 ml blood samples for the study of biochemical parameters were taken from tail vein of rats. Blood samples were taken from the animals after 14-15-hour's fasting at same time of day (9.00-11.00). For biochemical parameters tests a Biochemical Analyzer A-25 (Biosystems, Spain) was used. […]

[2] = Mass coefficients of organs (pancreas, liver, kidneys) of rats; details: M ± m; for weight coefficient, Kidneys / weight coefficient, Liver: in %
Experimental: To calculate mass coefficients the pancreas, liver and kidneys of the animals were extracted. The organs were weighed and the mass coefficients were calculated by the following formula:
Mass coefficient=(organ weight/animal body weight)×100%

[3] = tested on: experimental rat hypercholesterolemia model; assay: Biochemical blood analysis (drug toxicity parameters) in rat hypercholesterolemia model
Experimental: as §1, §2, §3
Biochemical parameters and activity of serum enzymes (aspartate- and alanine aminotransferase, creatine phosphokinase, urea, serum amylase, total bilirubin, direct bilirubin, indirect bilirubin, serum glucose, cations K^+, Na^+).
1.0-1.84 ml blood samples for the study of biochemical parameters were taken from tail vein of rats. Blood samples were taken from the animals after 14-15-hour's fasting at same time of day (9.00-11.00). For biochemical parameters tests a Biochemical Analyzer A-25 (Biosystems, Spain) was used.
Vol. 4. pp. 1794-1798; Pearlman F C and Lee R T Y. Clin Chem 1974, 20, 447-453; Zoppi F et al, Peracino A., Fenili D., Marcovina S. and Ramella C. Giorn It Chim Cl. […] C. et al Clin Chem. 1974. Vol. 20. pp. 470-475; and in Meiattini F., et al, Clin Chem. 1978. Vol. 24. pp. 2161-2165 (total cholesterol); Warnick G R et al. Clin Chem 2001, 47, 1579-96 (HDL/LDL); Bucolo G and David H. Clin Chem. 1973.-Vol. 19. pp. 476-482; and in Fossati P. and, Prencipe L., Clin Chem. 1982. Vol. 28. pp. 2077-2080 (triglycerides); Trinder P. Ann Clin Biochem. 1969. Vol. 6. pp. 24-27).

[4] = Day 30 of treatment (Day 60 of study), dose 108 mg
[5] = Day 60 of treatment (Day 90 of study), dose 108 mg
[6] = PV + GtA 40 + 108 mg, PV 40 mg, GtA 108 mg
[7] = blood, Day 60 of the treatment (Day 90 of the study), PV + GtA 40 + 108 mg, PV 20 mg, GtA 108 mg
[8] = Day 30 of treatment (Day 60 of study), dose 20 mg
[9] = Day 30 of treatment (Day 60 of study), dose 40 mg
[10] = Day 60 of treatment (Day 90 of study), dose 20 mg
[11] = Day 60 of treatment (Day 90 of study), dose 40 mg
[12] = LV + SGA 20 + 108 mg, LV 20 mg, SGA 108 mg
[13] = blood, Day 60 of the treatment (Day 90 of the study), LV + SGA 20 + 108 mg, LV 20 mg, SGA 108 mg

CC1(C)[C@@H](O)CC[C@]2(C)[C@H]3C(=O)C=C4[C@@H]5C[C@@](C)(C(=O)O)CC[C@]5(C)CC[C@@]4(C)[C@]3(C)CC[C@@H]12 [GtA, (2S,4aS,6aS,6bR,8aR,10S,12aS,12bR,14bR)-10-hydroxy-2,4a,6a,6b,9,9,12a-heptamethyl-13-oxo-1,2,3,4,4a,5,6,6a,6b,7,8,8a,9,10,11,12,12a,12b,13,14b-icosahydropicene-2-carboxylic acid]
HDL CHS [1, 4]: 0.51 ± 0.04 mmol/L | LDL CHS [1, 4]: 4.40 ± 0.4 mmol/L | TG [1, 4]: 1.6 ± 0.11 mmol/L | Total CHS [1, 4]: 4.9 ± 0.5 mmol/L | HDL CHS [1, 5]: 0.61 ± 0.03 mmol/L | LDL CHS [1, 5]: 4.24 ± 0.4 mmol/L | TG [1, 5]: 1.5 ± 0.11 mmol/L | Total CHS [1, 5]: 4.5 ± 0.5 mmol/L | weight coefficient, Pancreas [2, 6]: 0.21 ± 0.01^2 | weight coefficient, Kidneys [2, 6]: 0.80 ± 0.02 | weight coefficient, Liver [2, 6]: 4.43 ± 0.10 | ALT [3, 4]: 97 U/l | AST [3, 4]: 130 U/l | Amylase [3, 4]: 622 U/l | Bilirubin direct [3, 4]: 1.1 mg/dL | Bilirubin indirect [3, 4]: 1.7 mg/dL | Bilirubin total [3, 4]: 3.2 mg/dL | CPK [3, 4]: 390 U/l | Glucose [3, 4]: 119 mg/dL | Potassium [3, 4]: 2.8 mM | Urea [3, 4]: 6.5 mmol/L | ALT [3, 7]: 101 U/l | AST [3, 7]: 120 U/l | Amylase [3, 7]: 599 U/l | Bilirubin direct [3, 7]: 1.2 mg/dL | Bilirubin indirect [3, 7]: 1.8 mg/dL | Bilirubin total [3, 7]: 2.7 mg/dL | CPK [3, 7]: 300 U/l | Glucose [3, 7]: 112 mg/dL | Potassium [3, 7]: 3.1 mM | Urea [3, 7]: 5.5 mmol/L

CC[C@H](C)C(=O)O[C@H]1C[C@@H](C)C=C2C=C[C@H](C)[C@H](CC[C@@H]3C[C@@H](O)CC(=O)O3)[C@H]21 [LV, (1S,3R,7S,8S,8aR)-8-{2-[(2R,4R)-4-hydroxy-6-oxooxan-2-yl]ethyl}-3,7-dimethyl-1,2,3,7,8,8a-hexahydronaphthalen-1-yl (2S)-2-methylbutanoate]
HDL CHS [1, 8]: 0.64 ± 0.05 mmol/L | LDL CHS [1, 8]: 4.25 ± 0.44 mmol/L | TG [1, 8]: 1.31 ± 0.12 mmol/L | Total CHS [1, 8]: 5.6 ± 0.1 mmol/L | HDL CHS [1, 9]: 0.89 ± 0.01 mmol/L | LDL CHS [1, 9]: 3.82 ± 0.20 mmol/L | TG [1, 9]: 1.22 ± 0.03 mmol/L | Total CHS [1, 9]: 4.5 ± 0.2 mmol/L | HDL CHS [1, 10]: 0.74 ± 0.04 mmol/L | LDL CHS [1, 10]: 3.92 ± 0.43 mmol/L | TG [1, 10]: 1.21 ± 0.11 mmol/L | Total CHS [1, 10]: 4.8 ± 0.2 mmol/L | HDL CHS [1, 11]: 0.90 ± 0.01 mmol/L | LDL CHS [1, 11]: 3.43 ± 0.23 mmol/L | TG [1, 11]: 1.20 ± 0.03 mmol/L | Total CHS [1, 11]: 4.1 ± 0.3 mmol/L | weight coefficient, Pancreas ([2]; LV 40 mg): 0.48 ± 0.03^1 | weight coefficient, Kidneys ([2]; LV 40 mg): 0.77 ± 0.01 | weight coefficient, Liver ([2]; LV 40 mg): 4.46 ± 0.15 | weight coefficient, Pancreas [2, 12]: 0.35 ± 0.04 | weight coefficient, Kidneys [2, 12]: 0.74 ± 0.02 | weight coefficient, Liver [2, 12]: 4.45 ± 0.11 | ALT [3, 8]: 160 U/l | AST [3, 8]: 183 U/l | Amylase [3, 8]: 646 U/l | Bilirubin direct [3, 8]: 2.1 mg/dL | Bilirubin indirect [3, 8]: 2.1 mg/dL | Bilirubin total [3, 8]: 4.6 mg/dL | CPK [3, 8]: 510 U/l | Glucose [3, 8]: 139 mg/dL | Sodium [3, 8]: 128 mmol | Urea [3, 8]: 7.3 mmol/L | ALT [3, 13]: 141 U/l | AST [3, 13]: 190 U/l | Amylase [3, 13]: 597 U/l | Bilirubin direct [3, 13]: 4.4 mg/dL | Bilirubin indirect [3, 13]: 2.3 mg/dL | Bilirubin total [3, 13]: 4.4 mg/dL | CPK [3, 13]: 597 U/l | Glucose [3, 13]: 148 mg/dL | Sodium [3, 13]: 128 mmol | Urea [3, 13]: 6.0 mmol/L

CC1(C)[C@@H](O[C@H]2O[C@H](C(=O)O)[C@@H](O)[C@H](O)[C@H]2O[C@@H]2O[C@H](C(=O)O)[C@@H](O)[C@H](O)[C@H]2O)CC[C@]2(C)[C@H]3C(=O)C=C4[C@@H]5C[C@@](C)(C(=O)O)CC[C@]5(C)CC[C@@]4(C)[C@]3(C)CC[C@@H]12.[Na+] [SGA, sodium glycyrrhizinate]
HDL CHS [1, 4]: 0.53 ± 0.04 mmol/L | LDL CHS [1, 4]: 4.30 ± 0.41 mmol/L | TG [1, 4]: 1.3 ± 0.11 mmol/L | Total CHS [1, 4]: 5.0 ± 0.4 mmol/L | HDL CHS [1, 5]: 0.63 ± 0.03 mmol/L | LDL CHS [1, 5]: 4.00 ± 0.3 mmol/L | TG [1, 5]: 1.6 ± 0.11 mmol/L | Total CHS [1, 5]: 5.0 ± 0.4 mmol/L | weight coefficient, Pancreas [2, 12]: 0.22 ± 0.01^2 | weight coefficient, Kidneys [2, 12]: 0.81 ± 0.02 | weight coefficient, Liver [2, 12]: 4.42 ± 0.10 | ALT [3, 4]: 91 U/l | AST [3, 4]: 125 U/l | Amylase [3, 4]: 600 U/l | Bilirubin direct [3, 4]: 3.0 mg/dL | Bilirubin indirect [3, 4]: 1.2 mg/dL | Bilirubin total [3, 4]: 4.3 mg/dL | CPK [3, 4]: 308 U/l | Glucose [3, 4]: 110 mg/dL | Potassium [3, 4]: 2.5 mM | Sodium [3, 4]: 132 mmol | Urea [3, 4]: 6.8 mmol/L | ALT [3, 13]: 102 U/l | AST [3, 13]: 123 U/l | Amylase [3, 13]: 603 U/l | Bilirubin direct [3, 13]: 2.0 mg/dL | Bilirubin indirect [3, 13]: 1.9 mg/dL | Bilirubin total [3, 13]: 2.9 mg/dL | CPK [3, 13]: 331 U/l | Glucose [3, 13]: 120 mg/dL | Potassium [3, 13]: 3.2 mM | Sodium [3, 13]: 121 mmol | Urea [3, 13]: 5.2 mmol/L

Reference: patent US20170304336A1, “COMBINATION” (priority 2014, published 2017)
